How the values were obtained:
[1] = target: fatty acid amide hydrolase (FAAH) (Rattus norvegicus (Rat), UniProt P97612); assay: FAAH enzyme assay: inhibition of anandamide (AEA) hydrolysis, arachidonic acid quantified by HPLC; type: biochemical; details: for IC50 / Ki: eight-point assay; for IC50: anandamide hydrolysis by FAAH, read-out: IC50; for Ki: calculated with Prizm software, read-out: Ki; for inhibition at 100 µM: one-point assay, inhibitor 100 μM, partially purified rat brain FAAH, 15 min, read-out: % Inhibition (Concentration)
Method: The resulting supernatant is injected onto the HPLC.

Chain of fatty acid amide hydrolase (FAAH) (P97612 whole entry): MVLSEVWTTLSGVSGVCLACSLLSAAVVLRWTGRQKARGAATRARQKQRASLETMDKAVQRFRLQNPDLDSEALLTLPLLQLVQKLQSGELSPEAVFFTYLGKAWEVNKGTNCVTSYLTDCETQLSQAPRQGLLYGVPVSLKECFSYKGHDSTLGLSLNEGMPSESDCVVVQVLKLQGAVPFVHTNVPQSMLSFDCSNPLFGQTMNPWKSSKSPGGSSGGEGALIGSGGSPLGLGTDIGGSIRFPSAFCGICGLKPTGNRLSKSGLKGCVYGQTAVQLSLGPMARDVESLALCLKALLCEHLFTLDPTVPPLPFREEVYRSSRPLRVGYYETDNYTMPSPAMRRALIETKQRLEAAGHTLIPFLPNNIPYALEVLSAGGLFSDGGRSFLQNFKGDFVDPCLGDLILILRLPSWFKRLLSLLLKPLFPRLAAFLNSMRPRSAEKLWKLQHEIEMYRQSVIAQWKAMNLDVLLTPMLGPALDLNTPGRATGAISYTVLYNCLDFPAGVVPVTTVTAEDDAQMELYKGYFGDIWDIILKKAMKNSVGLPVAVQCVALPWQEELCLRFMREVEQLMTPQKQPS

Row | Structure (SMILES) | melting point | IC50 [1] | Ki [1] | inhibition at 100 µM [1]
1 | O=S(=O)(Cl)CCCCCCCc1ccc(OCc2ccccc2)cc1 [Compound 12.1, 7-(4-Benzyloxy-phenyl)-heptanesulfonyl chloride] | 33 to 35 °C | 53800 nM | 12700 nM | 99%
2 | O=S(=O)(F)CCCCCCCc1ccc(OCc2ccccc2)cc1 [Compound 13.1, 7-(4-Benzyloxy-phenyl)-heptanesulfonyl fluoride] | 35 to 38 °C |  |  | 100%
3 | O=S(=O)(F)CCCCCc1ccc(OCc2ccccc2)cc1 [Compound 13.4, 5-(4-Benzyloxy-phenyl)-pentanesulfonyl fluoride] | 66 to 68 °C | 180 nM | 15 nM | 97%
4 | O=S(=O)(F)CCCCCCCc1ccc(O)cc1 [Compound 14.1, 7-(4-Hydroxy-phenyl)-heptanesulfonyl fluoride] | 47 to 51 °C |  |  | 100%
5 | O=S(=O)(F)CCCCCc1ccc(O)cc1 [Compound 14.4, 5-(4-Hydroxy-phenyl)-pentanesulfonyl fluoride] | 32 to 35 °C | 346 nM |  | 99%
6 | O=S(=O)(Cl)CCCCOc1ccccc1 [Compound 16, 4-Phenoxybutyl sulfonyl chloride] | 65 to 67 °C | 53800 nM | 12700 nM | 99%
7 | O=S(=O)(F)CCCCOc1ccccc1 [Compound 17, 4-Phenoxybutylsulfonyl fluoride] | 74 to 76 °C | 226 nM | 53 nM | 100%
8 | COS(=O)(=O)CCCCCCCc1ccc(OCc2ccccc2)cc1 [Compound 18, 7-(4-Benzyloxy-phenyl)-heptane-1-sulfonic acid methyl ester] | 57 to 59 °C | 256 nM | 78 nM | 93%
9 | O=C(CCCOc1ccc(OCc2ccccc2)cc1)C(F)(F)F [Compound 23.1, 1,1,1-Trifluoro-5-[4-(benzyloxy)phenoxy]-2-pentanone] | 59 to 61 °C | 1800 nM | 150 nM | 96%
10 | O=C(CCCCOc1ccc(OCc2ccccc2)cc1)C(F)(F)F [Compound 23.2, 1,1,1-Trifluoro-6-[4-(Benzyloxy)phenoxy]-2-hexanone] | 95.5 to 96 °C | 13600 nM | 1200 nM | 76%
11 | O=C(CCCCCOc1ccc(OCc2ccccc2)cc1)C(F)(F)F [Compound 23.3, 1,1,1-Trifluoro-7-[4-(Benzyloxy)phenoxy]-2-heptanone] | 59 to 60 °C | 2900 nM | 320 nM | 94%
12 | O=C(CCCCCCOc1ccc(OCc2ccccc2)cc1)C(F)(F)F [Compound 23.4, 1,1,1-Trifluoro-8-[4-(Benzyloxy)phenoxy]-2-octanone] | 82 to 83 °C | 11800 nM | 830 nM | 88%
13 | O=C(CCCOc1ccccc1OCc1ccccc1)C(F)(F)F [Compound 23.8, 1,1,1-Trifluoro-5-[2-(Benzyloxy)phenoxy]-2-pentanone] | 50 to 51 °C | 34600 nM | 2280 nM | 46%
14 | O=C(CCCCCOc1ccccc1OCc1ccccc1)C(F)(F)F [Compound 23.10, 1,1,1-Trifluoro-7-[2-(Benzyloxy)phenoxy]-2-heptanone] | 31 to 32 °C | 7900 nM | 553 nM | 95%
15 | O=C(CCCCOc1ccccc1)C(F)(F)F [Compound 23.12, 1,1,1-Trifluoro-6-phenoxy-2-hexanone] | 50 to 51 °C | 25400 nM | 2800 nM | 65%
16 | Cc1nnc(C(=O)c2cccc(-c3cccc(OCc4ccccc4)c3)c2)o1 [Compound 78, 1-(3′-Benzyloxy-1,1′-biphenyl-3-yl)-1-(5-methyl-1,3,4-oxadiazol-2-yl)-ketone] | 97 to 99 °C |  |  | 56%

Further lines, results first:

Row | melting point | IC50 [1] | Ki [1] | inhibition at 100 µM [1] | Structure (SMILES)
17 | 76 to 77 °C |  |  |  | Oc1cccc(OCCCC(O)(O)C(F)(F)F)c1 (hydrate or solvate) [Compound 24.5, 1,1,1-Trifluoro-2,2-dihydroxy-5-[3-(hydroxy)phenoxy]pentane]
18 | 63 to 64 °C | 23200 nM | 2600 nM | 60% | O=C(CCCCOc1ccc(O)cc1)C(F)(F)F [Compound 24.2, 1,1,1-Trifluoro-6-[4-(hydroxy)phenoxy]-2-hexanone]
19 | 61 to 62 °C | 760 nM | 54 nM | 89% | O=C(CCCCCCOc1ccc(O)cc1)C(F)(F)F [Compound 24.4, 1,1,1-Trifluoro-8-[4-(hydroxy)phenoxy]-2-octanone]
20 | 51 to 52 °C | 23900 nM | 1600 nM | 60% | O=C(CCCCOc1ccccc1O)C(F)(F)F [Compound 24.9, 1,1,1-Trifluoro-6-[2-(hydroxy)phenoxy]-2-hexanone]
21 | 89 to 90 °C |  |  |  | O=C(NCCCc1ccccc1)NCc1ccccn1 [Compound 59.1, N-(3-phenylpropyl)-N′-(2-pyridinylmethyl)-urea]
22 | 127 to 128 °C |  |  |  | O=C(NCCCc1ccccc1)Nc1ccccn1 [Compound 59.2, N-(3-phenylpropyl)-N′-(2-pyridinyl)-urea]
23 |  |  |  | 94% | O=C(c1cccc(Br)n1)C(F)(F)c1ccc(-c2ccccc2)cc1 [Compound 93.7, 2-(Biphenyl-4-yl)-1-(6-bromopyridin-2-yl)-2,2-difluoroethanone]
24 |  |  |  | 86% | O=C(CCCCCCOc1ccccc1)C(F)(F)c1ccccn1 [Compound 96.1, 1,1-Difluoro-8-phenoxy-1-(pyridin-2-yl)octan-2-one]
25 |  |  |  | 61% | O=C(c1ccc(-c2ccccc2)cc1)C(F)(F)c1ccccn1 [Compound 96.2, 1 (Biphenyl-4-yl)-2,2-difluoro-2-(pyridin-2-yl)ethanone]
